Assay type in all cases: biochemical
For one experiment, the target named is T1, Human MMP2 (Homo sapiens, UniProt P08253).
T1 construct: purchased Calbiochem 444213
T1 sequence (P08253 110-660): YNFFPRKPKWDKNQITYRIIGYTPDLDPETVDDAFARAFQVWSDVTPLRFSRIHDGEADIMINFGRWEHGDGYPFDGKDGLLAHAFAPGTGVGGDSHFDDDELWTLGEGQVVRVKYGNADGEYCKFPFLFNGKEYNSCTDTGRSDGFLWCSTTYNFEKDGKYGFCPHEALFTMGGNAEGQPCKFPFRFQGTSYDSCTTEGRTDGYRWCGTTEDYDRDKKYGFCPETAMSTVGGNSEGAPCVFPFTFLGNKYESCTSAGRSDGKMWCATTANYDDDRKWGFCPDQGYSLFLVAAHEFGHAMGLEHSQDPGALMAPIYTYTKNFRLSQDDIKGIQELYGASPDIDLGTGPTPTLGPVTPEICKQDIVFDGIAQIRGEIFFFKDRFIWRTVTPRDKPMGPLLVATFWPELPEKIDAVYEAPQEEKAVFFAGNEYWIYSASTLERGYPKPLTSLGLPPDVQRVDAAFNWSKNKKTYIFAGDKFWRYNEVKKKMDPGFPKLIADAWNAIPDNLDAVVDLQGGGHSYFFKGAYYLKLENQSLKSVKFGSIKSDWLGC
The experiment in a line: MMP2 inhibition experiment. The conditions noted are these: concentration required for 50% inhibition of enzyme activity; read-out: IC50 value MMP-2.

A further experiment deals with T2, TACE (Homo sapiens, UniProt P78536).
T2 construct: made in house; host or cells: mammalian cells or insect cells
T2 sequence (P78536 215-824): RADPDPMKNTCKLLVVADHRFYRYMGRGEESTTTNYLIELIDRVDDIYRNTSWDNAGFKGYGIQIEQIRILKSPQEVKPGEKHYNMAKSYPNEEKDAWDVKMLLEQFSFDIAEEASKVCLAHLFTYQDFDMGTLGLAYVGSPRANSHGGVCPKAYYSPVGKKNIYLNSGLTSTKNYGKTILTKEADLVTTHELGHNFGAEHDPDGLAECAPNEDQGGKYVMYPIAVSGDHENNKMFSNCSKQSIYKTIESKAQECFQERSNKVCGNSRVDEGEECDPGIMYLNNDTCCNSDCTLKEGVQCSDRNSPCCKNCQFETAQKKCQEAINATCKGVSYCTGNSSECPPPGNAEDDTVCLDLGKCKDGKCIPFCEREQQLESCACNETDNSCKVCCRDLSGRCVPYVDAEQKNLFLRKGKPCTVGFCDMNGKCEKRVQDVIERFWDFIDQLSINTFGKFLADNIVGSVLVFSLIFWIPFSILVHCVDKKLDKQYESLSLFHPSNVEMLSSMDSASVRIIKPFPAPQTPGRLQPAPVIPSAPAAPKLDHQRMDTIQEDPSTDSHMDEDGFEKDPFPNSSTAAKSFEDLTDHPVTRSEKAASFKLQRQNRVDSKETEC
Description: TACE inhibition experiment (in vitro).

The target in a further experiment is T3, Human MMP3 (Homo sapiens, UniProt P08254).
T3 construct: purchased Calbiochem 444217
T3 sequence (P08254 100-272 limits assumed): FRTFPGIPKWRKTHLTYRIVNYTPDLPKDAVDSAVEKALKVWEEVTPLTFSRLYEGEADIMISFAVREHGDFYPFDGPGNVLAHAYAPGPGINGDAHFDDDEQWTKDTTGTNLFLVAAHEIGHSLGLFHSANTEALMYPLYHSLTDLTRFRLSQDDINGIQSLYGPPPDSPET
Description: MMP3 inhibition experiment. The conditions noted are these: concentration required for 50% inhibition of enzyme activity; read-out: IC50 value MMP-3. In short, it runs like this:
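Fluorescence-quenched substrate NFF-3 (MOCAc/Dnp peptide, 20 μM as prepared) cleaved by 5 ng human MMP3 over 5 hours at 37° C, with inhibition measured from substrate fluorescence.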

The target in a further experiment is T4, Human MMP9 (Homo sapiens, UniProt P14780).
T4 construct: purchased Calbiochem 444231
T4 sequence (P14780 107-707 limits assumed): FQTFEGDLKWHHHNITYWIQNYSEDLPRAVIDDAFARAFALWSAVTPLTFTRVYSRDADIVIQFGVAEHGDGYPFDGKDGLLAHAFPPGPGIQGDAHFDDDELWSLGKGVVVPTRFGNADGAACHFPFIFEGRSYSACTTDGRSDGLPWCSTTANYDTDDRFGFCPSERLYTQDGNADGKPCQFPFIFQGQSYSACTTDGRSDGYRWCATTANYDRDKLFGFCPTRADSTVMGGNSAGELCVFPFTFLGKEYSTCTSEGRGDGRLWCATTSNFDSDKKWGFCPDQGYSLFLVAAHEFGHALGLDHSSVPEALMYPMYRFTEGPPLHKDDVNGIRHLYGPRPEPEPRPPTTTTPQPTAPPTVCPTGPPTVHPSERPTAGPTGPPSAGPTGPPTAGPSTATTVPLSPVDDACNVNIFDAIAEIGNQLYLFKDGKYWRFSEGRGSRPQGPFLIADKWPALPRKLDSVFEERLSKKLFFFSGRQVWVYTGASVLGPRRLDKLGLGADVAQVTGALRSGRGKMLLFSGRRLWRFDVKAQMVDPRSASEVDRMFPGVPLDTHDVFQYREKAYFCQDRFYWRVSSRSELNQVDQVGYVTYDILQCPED
The experiment in a line: MMP9 inhibition experiment. The conditions noted are these: read-out: IC50 value MMP-9.

Another experiment concerns the target T5, Human MMP17 (Homo sapiens, UniProt Q9ULZ9).
T5 construct: purchased Calbiochem 475940
T5 sequence (Q9ULZ9 126-300 limits assumed): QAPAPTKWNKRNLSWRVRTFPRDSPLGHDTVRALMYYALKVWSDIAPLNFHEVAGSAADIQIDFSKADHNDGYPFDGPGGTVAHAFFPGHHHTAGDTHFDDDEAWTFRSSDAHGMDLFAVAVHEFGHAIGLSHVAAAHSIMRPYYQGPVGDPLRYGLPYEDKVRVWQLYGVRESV
Description: MMP17 inhibition test. The conditions noted are these: concentration required for 50% inhibition of enzyme activity; read-out: IC50 value MMP-17.

A further experiment has as its target T6, Human MMP1 (Homo sapiens, UniProt P03956).
T6 construct: purchased Calbiochem 444208
T6 sequence (P03956 100-469): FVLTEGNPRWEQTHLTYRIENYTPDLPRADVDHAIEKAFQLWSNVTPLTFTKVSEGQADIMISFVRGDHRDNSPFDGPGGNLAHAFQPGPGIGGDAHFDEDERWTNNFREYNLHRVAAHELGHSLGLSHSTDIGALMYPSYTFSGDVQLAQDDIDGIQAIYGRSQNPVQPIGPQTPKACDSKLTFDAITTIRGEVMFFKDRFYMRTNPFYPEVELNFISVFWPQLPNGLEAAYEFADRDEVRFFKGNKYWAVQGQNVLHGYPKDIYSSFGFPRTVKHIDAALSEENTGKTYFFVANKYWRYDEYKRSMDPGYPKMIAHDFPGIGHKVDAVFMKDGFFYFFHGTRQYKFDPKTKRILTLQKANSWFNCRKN
Description: MMP1 inhibition experiment. The conditions noted are these: read-out: IC50 value MMP-1.

The next experiment has as its target T7, Human MMP14 (Homo sapiens, UniProt P50281).
T7 construct: purchased Biogenesis or Calbiochem 5980-1461 or 475935
Description: MMP14 inhibition experiment. The conditions noted are these: concentration required for 50% inhibition of enzyme activity; read-out: IC50 value MMP-14. In short, it runs like this: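 Fluorescence assay: substrate Dnp-Pro-Cha-Gly-Cys(Me)-His-Ala-Lys(Nma)-NH2 (20 μM before equal-volume mixing) incubated at 37° C for 5 hours with 4 ng human MMP14.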

A further experiment has as its target T8, Human MMP8 (Homo sapiens, UniProt P22894).
T8 construct: purchased Calbiochem 444229
The experiment in a line: MMP8 inhibition experiment. The conditions noted are these: concentration required for 50% inhibition of enzyme activity; read-out: IC50 value MMP-8. In short, it runs like this: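 Human MMP8 activated with APMA for 1 h at 37° C, then incubated with fluorogenic peptide MOCAc-Pro-Leu-Gly-Leu-A2pr(Dnp)-Ala-Arg-NH2 (20 μM stock) for 5 hours at 37° C. Fluorescent substrate cleavage serves as read-out.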

The target in the next experiment is T9, Human MMP13 (Homo sapiens, UniProt P45452).
T9 construct: purchased Chemicon CC068
The experiment in a line: MMP13 inhibition experiment. The conditions noted are these: concentration required for 50% inhibition of enzyme activity; read-out: IC50 value MMP-13.

Where only a bound is given, the exact number is not on record here.

As a reminder, the IC50 is the concentration that gives 50% inhibition.

T8 sequence (P22894 101-467): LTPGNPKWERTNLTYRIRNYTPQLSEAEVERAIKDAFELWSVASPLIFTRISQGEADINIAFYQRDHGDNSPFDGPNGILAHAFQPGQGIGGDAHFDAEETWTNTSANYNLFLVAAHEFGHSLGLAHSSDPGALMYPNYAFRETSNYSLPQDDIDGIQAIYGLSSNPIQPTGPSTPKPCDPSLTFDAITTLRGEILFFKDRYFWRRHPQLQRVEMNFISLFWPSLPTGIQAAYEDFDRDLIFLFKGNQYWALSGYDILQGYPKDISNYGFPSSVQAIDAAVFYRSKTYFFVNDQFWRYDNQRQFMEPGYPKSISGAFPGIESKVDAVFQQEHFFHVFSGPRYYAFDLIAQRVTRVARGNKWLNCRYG
Description for Human MMP13: Human MMP13 (Chemicon #CC068) in amount of 90 μL (200 ng) was activated by mixing with 10 μL of 10 mM APMA, followed by reaction for 1 hour at 37° C. This enzyme solution in amount of 0.6 μL was diluted to 90 μL with the assay buffer A, which was added to 90 μL of 20 μM fluorescent substrate (Dnp-Pro-Cha-Gly-Cys(Me)-His-Ala-Lys(Nma)-NH2) prepared in the assay buffer B, followed by reaction for 4 hours at 37° C.
Description for Human MMP2: This enzyme solution in amount of 10 μL was diluted to 90 μL with the assay buffer A, which was added to 90 μL of 20 μM fluorescent substrate (MOCAc((7-methoxycoumarin-4-yl)acetyl)-Pro-Leu-Gly-Leu-A2pr(Dnp)-Ala-Arg-NH2, Peptide Institute, Inc., #3163-v) prepared in the assay buffer B, followed by reaction for 5 hours at 37° C.
Description for Human MMP9: The methods of inhibition experiments carried out for various MMPs are described below.
This enzyme solution in amount of 1 μL was diluted to 90 μL with the assay buffer A, which was added to 90 μL of 20 μM fluorescent substrate (Dnp-Pro-Cha-Gly-Cys(Me)-His-Ala-Lys(Nma)-NH2) prepared in the assay buffer B, followed by reaction for 4 hours at 37° C.
Description for TACE: TACE inhibition experiments were conducted using TACE obtained as above as an enzyme and by measuring TACE activity in the presence or absence of a test substance using Nma (N-metylanthranilic acid)-[sequence]Dnp(dinitrophenyl)-D-Arg-NH2 being a fluorescent synthetic substrate which contains the sequence of cleavage site of membrane-bound TNF by TACE, as a substrate.
More specifically, 14 units of an enzyme solution (1 unit is defined as the amount of enzyme which degrades 1 pmol of the substrate per minute at 25° C.) which was prepared in 90 μL of assay buffer A (50 mM Tris-HCl buffer (pH 7.5) containing 200 mM sodium chloride, 5 mM calcium chloride, 10 μM zinc sulfate, 0.004% sodium azide and 2 mg/mL bovine serum albumin) and 90 μL of 20 μM fluorescent synthetic substrate prepared in assay buffer B (50 mM Tris-HCl buffer (pH 7.5) containing 200 mM sodium chloride, 5 mM calcium chloride, 10 μM zinc sulfate, 0.004% sodium azide and 0.05% PLURONIC F-68) are mixed and reacted for 2 hours at 37° C.

On to `CCC(CC)CN1CCC(CC(CS(=O)(=O)c2ccc(OCc3cc(C)nc4ccccc34)cc2)N(O)C=O)CC1` (stereo not drawn) [Example I-71], for which the IC50 at Human MMP2 is 0.78 µM; on TACE, 0.02 µM; on Human MMP3 it was 0.4 µM; at Human MMP9 it was 38 µM; at Human MMP17, 0.06 µM; on Human MMP1 it was above 100 µM. Further, the values for the IC50 at Human MMP14, at Human MMP8 and at Human MMP13 were 70 µM, 10 µM and 1.4 µM, respectively.

On to `Cc1cc(COc2ccc(S(=O)(=O)CC(C3CCCN(C(=O)OC(C)(C)C)C3)N(O)C=O)cc2)c2ccccc2n1` (stereo not drawn) [Example I-72], for which the IC50 on Human MMP2 was found to be 2 µM; on TACE, 0.024 µM; at Human MMP3, 0.7 µM; at Human MMP9, 64 µM; on Human MMP17 it was 0.28 µM; at Human MMP1, 90 µM. Further, the results for the IC50 at Human MMP14, at Human MMP8 and at Human MMP13 were 48 µM, 10 µM and 1.4 µM, respectively.

With `CC(=O)N1CCC(C(CS(=O)(=O)c2ccc(OCc3cc(C)nc4ccccc34)cc2)N(O)C=O)CC1` (stereo not drawn) [Example I-73], the IC50 at Human MMP2 was 26 µM; against TACE, 0.014 µM; at Human MMP3 it was 1.7 µM; at Human MMP9, above 100 µM; on Human MMP17, 0.66 µM; on Human MMP1, above 100 µM. Moreover, the IC50 was above 100 µM at Human MMP14, 18 µM on Human MMP8 and 50 µM at Human MMP13.

For the compound `Cc1ccc2nc(C)cc(COc3ccc(S(=O)(=O)CC(C=C4CCOCC4)N(O)C=O)cc3)c2c1` (stereo not drawn) [Example I-74, N-{2-[4-(2.6-dimethylquinolin-4-ylmethoxy)benzenesulfonyl]-1-(tetrahydropyran-4-ylidenemethyl)ethyl}-N-hydroxyformamide], the IC50 on Human MMP2 was 41 µM; against TACE, 0.005 µM; on Human MMP3, 6 µM; at Human MMP9 it was 50 µM; at Human MMP17, 10 µM; on Human MMP1, 70 µM. Moreover, the IC50 on Human MMP14 stood at 60 µM; on Human MMP8 it was 65 µM; at Human MMP13 it was 20 µM.

For `Cc1ccc2nc(C)cc(COc3ccc(S(=O)(=O)CC(C=C4CCC(=NO)CC4)N(O)C=O)cc3)c2c1` (stereo not drawn) [Example I-75], the IC50 was 50 µM on Human MMP2; 0.0041 µM against TACE; 5.5 µM at Human MMP3; 35 µM on Human MMP9; 11 µM on Human MMP17; 65 µM on Human MMP1. For the same compound, the values for the IC50 on Human MMP14, on Human MMP8 and on Human MMP13 were 40 µM, 90 µM and 22 µM, respectively.

Consider `Cc1ccc2nc(C)cc(COc3ccc(S(=O)(=O)CC(c4ccccc4C)N(O)C=O)cc3)c2c1` (stereo not drawn) [Example I-77], for which the IC50 at Human MMP2 is 71 µM; against TACE it was 0.026 µM; on Human MMP3, 3 µM; on Human MMP9, 80 µM; on Human MMP17, 7.5 µM; on Human MMP1 it was 74 µM. The 50% inhibitory concentration (IC50) on Human MMP14 is 55 µM; on Human MMP8 it was above 100 µM; on Human MMP13, 28 µM.

Turning to `Cc1cncc(C(CS(=O)(=O)c2ccc(OCc3cc(C)nc4ccc(C)cc34)cc2)N(O)C=O)c1` (stereo not drawn) [Example I-78], the half-maximal inhibitory concentration (IC50) was 36 µM on Human MMP2; 0.0031 µM on TACE; 2.8 µM at Human MMP3; above 100 µM at Human MMP9; 3.9 µM at Human MMP17; above 100 µM at Human MMP1. Besides, the IC50 on Human MMP14 is 55 µM; at Human MMP8 it was 52 µM; at Human MMP13, 16 µM.

Consider `Cc1cc(COc2ccc(S(=O)(=O)CC(c3ccccc3C)N(O)C=O)cc2)c2cc(F)ccc2n1` (stereo not drawn) [Example I-79, N-{2-[4-(6-fluoro-2-methylquinolin-4-ylmethoxy)benzenesulfonyl]-1-o-tolylethyl}-N-hydroxyformamide], for which the IC50 worked out at 58 µM at Human MMP2; 0.015 µM on TACE; 2.9 µM on Human MMP3; 70 µM on Human MMP9; 6.2 µM on Human MMP17; 68 µM on Human MMP1. For the same compound, the values for the IC50 on Human MMP14, at Human MMP8 and on Human MMP13 were 46 µM, 73 µM and 20 µM, respectively.

For the compound `Cc1cncc(C(CS(=O)(=O)c2ccc(OCc3cc(C)nc4ccc(F)cc34)cc2)N(O)C=O)c1` (stereo not drawn) [Example I-80], the IC50 at Human MMP2 is 18 µM; on TACE, 0.0045 µM; on Human MMP3, 4 µM; on Human MMP9, above 100 µM; at Human MMP17 it was 7 µM; on Human MMP1, above 100 µM. Further, the IC50 on Human MMP14 is above 100 µM; on Human MMP8 it was 27 µM; on Human MMP13 it was 23 µM.

On to `Cc1ccc(C(CS(=O)(=O)c2ccc(OCc3cc(C)nc4ccc(F)cc34)cc2)N(O)C=O)cn1` (stereo not drawn) [Example I-81], for which the IC50 on Human MMP2 was 11 µM; on TACE it was 0.0051 µM; on Human MMP3, 2.2 µM; on Human MMP9, above 100 µM; at Human MMP17, 8 µM; at Human MMP1 it was above 100 µM. The concentration for half-maximal inhibition (IC50) turned out to be 64 µM on Human MMP14, 20 µM on Human MMP8 and 17 µM at Human MMP13.

For the compound `Cc1ccccc1C(CS(=O)(=O)c1ccc(OCc2ccc3ccccc3n2)cc1)N(O)C=O` (stereo not drawn) [Example I-82], the concentration for half-maximal inhibition (IC50) on Human MMP2 came to 4.2 µM; against TACE, 3.5 µM; on Human MMP3 it was 50 µM; on Human MMP9, 32 µM; at Human MMP17, 30 µM; on Human MMP1, 92 µM. The IC50 on Human MMP14 was 38 µM; at Human MMP8, above 100 µM; at Human MMP13, 26 µM.

In the case of `O=CN(O)C(C=C1CCC2(CC1)OCCO2)CS(=O)(=O)c1ccc(OCc2ccc3ccccc3n2)cc1` (stereo not drawn) [Example I-83], the IC50 on Human MMP2 is 7 µM; on TACE, 2.5 µM; on Human MMP3 it was 37 µM; on Human MMP9 it was 53 µM; at Human MMP17, 36 µM; at Human MMP1, above 100 µM. The IC50 on Human MMP14 was 55 µM; on Human MMP8, above 100 µM; at Human MMP13 it was 23 µM.

With `O=CON=C1CCC(=CC(CS(=O)(=O)c2ccc(OCc3ccc4ccccc4n3)cc2)N(O)C=O)CC1` (stereo not drawn) [Example I-85], the 50% inhibitory concentration (IC50) at Human MMP2 was 4.5 µM; against TACE it was 0.36 µM; at Human MMP3, 50 µM; at Human MMP9, 56 µM; at Human MMP17 it was 31 µM; on Human MMP1 it was above 100 µM. In addition, the IC50 on Human MMP14 is 60 µM; on Human MMP8, 70 µM; at Human MMP13, 22 µM.

As to `O=CN(O)C(C=C1CCC(=NO)CC1)CS(=O)(=O)c1ccc(OCc2ccc3ccccc3n2)cc1` (stereo not drawn) [Example I-86], the IC50 on Human MMP2 is 5.8 µM; against TACE, 0.42 µM; on Human MMP3 it was 61 µM; at Human MMP9, 70 µM; on Human MMP17 it was 31 µM; at Human MMP1 it was above 100 µM. The IC50 at Human MMP14 is 70 µM; on Human MMP8, above 100 µM; at Human MMP13 it was 22 µM.

The record behind these values is US7511144B2, “Reverse hydroxamic acid derivatives” (Kaken Pharmaceutical Co., Ltd., priority 2001, dated 2009).
